The source of these data is patent US20060052307A1, “Bone growth factor” (priority 2002, published 2006).

Where “and” joins values, the source holds several entries; their conditions need not be identical. Identical values can stand only once. Bridges are numbered along the chain shown (N, C = ends). Roman numbers before positions name the chains, in order. The star is where a group is joined. Cam = NC(=O)C*

Data set [1] deals with Sprague-Dawley rats. Description: Bone mineral apposition rate after a single subcutaneous peptide injection, double tetracycline labelling, distal metaphysis of the right femur. The format is in vivo, rat. The arrangement: Bone mineral apposition rate, group mean (Table 2): unit not given here. The settings on record: male rats; for BONE MINERAL APPOSITION, individual rats (Table 6) / Effect on bone mineral apposition / BONE MINERAL APPOSITION, MEAN (Table 6): Example 3, 300 nmoles/kg S.C.; for BONE MINERAL APPOSITION, MEAN (Table 6): control 1.62; for Effect on bone mineral apposition rate versus control / Bone mineral apposition rate, individual rats (Table 2) / Bone mineral apposition rate, group mean (Table 2): Example 1; for Bone mineral apposition rate, individual rats (Table 2) / Bone mineral apposition rate, group mean (Table 2): 300 nmoles/kg s.c. single dose; for Bone mineral apposition rate, group mean (Table 2): N=4, control 1.48. The procedure: Test peptides were administered by subcutaneous injection to the right gluteal region of the rats after being dissolved in a carrier buffer comprising PBS containing 0.1% heat inactivated BSA at pH 7.4. The dose was 300 nmoles/kg bodyweight in an injection volume of 400 μl.
Male Sprague-Dawley rats from Charles River Laboratory were used. The weight of the animals was approximately 350 g. They were housed in pairs in standard shoebox cages. Purina rat chow and tap water were provided ad libitum. The light/dark cycle was 12 hours, the temperature 22° C. and the humidity 50%. The animals were acclimatized for one week before initiating dosing.
Bone mineral apposition rate as measured for the distal metaphysis of the right femur was the parameter for the assessment of activity. Two doses of tetracycline hydrochloride (Sigma), 24 mg/kg body weight were administered I.M. in an injection volume of 800 μl to the left gluteus maximus muscle. The first dose was given immediately following the administration of the peptide, and the second dose 48 hours later. 24 hours after the second dose of tetracycline, the animals were sacrificed by carbon dioxide narcosis. The right femur was dissected clear of muscles and a 0.5 cm cross section of the bone 1 mm below the upper epiphyseal cartilage was taken and processed undecalcified for histological preparation of […]. Bone mineral apposition rate was measured in 15 randomly selected bone formation sites with two tetracycline labels in the trabecular bone. The arithmetic mean of these 15 sites was taken as the mean bone mineral apposition for the respective animals.
The dose of peptide was dissolved in 400 μl of buffer comprising of PBS with 0.1% of heat inactivated BSA and the method for the determination of bone mineral apposition rate was as described before.
Experimental design: Animals were grouped in four. All groups received a single dose of SEQ ID NO:2 (300 nmoles/kg) subcutaneously injected to the right gluteal region at Day 0 at approximately the same time within 15 minutes. Two doses tetracycline labeling at intervals of 48 hours was used to measure bone mineral apposition rate. The control group received buffer injection only.

Data set [2] in a line: Stability of peptides in solution, intact peptide remaining by HPLC peak height. The format is physicochemical. The note with it: pH 7.4. How it is done:
Solvents for test peptides: Milli-Q water filtered through […] filter; resistance—18.2 Mega Ohms
Phosphate buffered saline: pH […] from Gibco (Cat. #100113-023)
20. mM sodium acetate buffer: pH 4.5 prepared with Milli-Q water and filtered through […] filter.
Peptides: The test peptides included those of SEQ ID NOs: 2, 3, 4 & 7.
Peptide preparation: Test peptides were dissolved in either PBS or sodium acetate buffer at a concentration of 0.2 mg per ml. The purity of the test peptides was greater than 95%.
Method for testing stability: Stability of the peptides was examined at pH7.4 and at room temperature, 4° C. and 37° C. The amount of intact peptide remaining over time was compared with the initial intact amount. The quantification of the amount of peptide was based on peak height in an HPLC profile.

Data set [3] has as its system Sprague-Dawley rats. The experiment in a line: Bone mineral apposition rate after a single subcutaneous peptide injection, double tetracycline labelling, distal metaphysis of the right femur. The class given is in vivo, rat. The settings on record: Example 2, 300 nmoles/kg s.c., N=3, control 1.18. The arrangement: unit not given here.

On to “Ac-R T N E H T A D C K —NH2 (Ac-RTNEHTADCK-NH2) [SEQ ID NO: 8, monomer]”, for which, in the data set with Sprague-Dawley rats [1], the BONE MINERAL APPOSITION, individual rats (Table 6) was 2.27 µm/d and 1.78 µm/d and 2.15 µm/d and 2.01 µm/d; the “Effect on bone mineral apposition” value is “significantly stimulated”; the BONE MINERAL APPOSITION, MEAN (Table 6) was 2.05 µm/d.
With “Ac-R T Q E H T A E C K —NH2 (Ac-RTQEHTAECK-NH2) [SEQ ID NO: 7, monomer, prior art peptide]”, the “Effect on bone mineral apposition rate versus control” value in the data set with Sprague-Dawley rats [1] (300 nmoles/kg s.c.) is on record as “significantly higher than the control group”. In the data set with Sprague-Dawley rats [1], the Bone mineral apposition rate, individual rats (Table 2) is 2.41 µm/d and 2.54 µm/d and 2.25 µm/d and 2.24 µm/d; the “Bone mineral apposition rate, group mean (Table 2)” value worked out at 2.36; the BONE MINERAL APPOSITION, individual rats (Table 6) is 1.91 µm/d and 1.73 µm/d (2×) and 2.06 µm/d; the “Effect on bone mineral apposition” value was “significantly stimulated”. The BONE MINERAL APPOSITION, MEAN (Table 6) in the data set with Sprague-Dawley rats [1] amounted to 1.86 µm/d. Further, the Degradation in solution result in data set [2] (4° C. and room temperature, 6 months) was “totally degraded”. For the same substance, the Degradation in solution entry in data set [2] (4° C. and room temperature, over three months) is given as “substantial degradation”. In data set [2] (37° C., over 3 weeks), the Degradation in solution entry was “substantial degradation”.
Consider K-T-Q-E-F-T-A-E-M-K [SEQ ID NO: 1], for which the “Bone Mineral Apposition Rate, Mean rate (Table 4)” value in the data set with Sprague-Dawley rats [3] turned out to be 1.61.
For “SEQ ID NO: 5: peptide of SEQ ID NO:7 with a carboxyamidomethyl residue modifying cysteine at the 9-position of the decamer (Ac-RTQEHTAEC(Cam)K-NH2)”, the “Bone mineral apposition rate compared with the prior art peptide of SEQ ID NO: 7 (FIG. 5)” value with Sprague-Dawley rats [1] (Example 4, 300 nmoles/kg s.c.) is reported as “significantly greater”.
Regarding “SEQ ID NO: 7, dimer: dimerized form of the peptide having SEQ ID NO:7, disulfide bonding between the cysteine residues (chain 1 Ac-RTQEHTAECK-NH2; chain 2 Ac-RTQEHTAECK-NH2; disulfide I:9-II:9; also: disulfide-linked dimer)”, the “Effect on bone mineral apposition rate versus control” value in the data set on Sprague-Dawley rats [1] (300 nmoles/kg s.c.) is “inhibitory effect”. Moreover, in the data set with Sprague-Dawley rats [1], the Bone mineral apposition rate, individual rats (Table 2) is 1.28 µm/d and 1.41 µm/d and 1.5 µm/d and 1.38 µm/d; the “Bone mineral apposition rate, group mean (Table 2)” value is 1.39; the BONE MINERAL APPOSITION, individual rats (Table 6) was 1.29 µm/d and 1.51 µm/d (2×); the “Effect on bone mineral apposition” value is “significantly inhibit”. The same substance yielded a BONE MINERAL APPOSITION, MEAN (Table 6) in the data set on Sprague-Dawley rats [1] of 1.43 µm/d.
For the substance “SEQ ID NO: 8, dimer: dimer form of the peptide with SEQ ID NO: 8 (chain 1 Ac-RTNEHTADCK-NH2; chain 2 Ac-RTNEHTADCK-NH2; not fully specified (bridges); cysteine pairing not given here; also: dimer, linkage not given here)”, in the data set on Sprague-Dawley rats [1], the BONE MINERAL APPOSITION, individual rats (Table 6) was 1.39 µm/d and 1.43 µm/d and 1.42 µm/d and 1.36 µm/d; the “Effect on bone mineral apposition” value was “significantly inhibit”; the BONE MINERAL APPOSITION, MEAN (Table 6) is 1.4 µm/d.
